Data as given in article PMC6514996, “Discovery of Potent and Selective Halogen-Substituted Imidazole-Thiosemicarbazides for Inhibition of Toxoplasma gondii Growth In Vitro via Structure-Based Design” (Molecules, 2019).
Converted amounts (≈) assume the structure as drawn.

Columns and labels:
[1] = system: Toxoplasma gondii tachyzoites; parameters: method as in PMID 30744161; settings: ref [19], cited from earlier work; for IC50: inhibition of T. gondii tachyzoite proliferation, previous study; for SR (selectivity ratio): ratio of CC50 to IC50, previous study
[2] = Cytotoxicity against L929 cells, MTT cell viability assay (ISO 10993-5:2009(E)); assay type: cell-based; settings: mouse, L929 mouse fibroblast cells; for viability at 24 h, 5 µg/mL / viability at 24 h, 25 µg/mL / viability at 24 h, 50 µg/mL / viability at 24 h, 125 µg/mL / viability at 24 h, 250 µg/mL / viability at 24 h, 500 µg/mL / viability at 24 h, 1000 µg/mL: read-out: viability of L929 cells (% of viable cells); for CC50 at 24 h: 50% cell proliferation inhibition, L929 cells
Text: Since T. gondii is an obligate intracellular parasite that requires invasion of mammalian host cells to proliferate, compounds that inhibit parasite growth might be toxic to host cells as well. Therefore, as an initial indicator for host cell toxicity, we firstly evaluated compounds 5–16 for their ability to inhibit the growth of mouse fibroblast (L929) cells line according to the international standards: ISO 10993-5:2009(E).
To calculate the reduction of viability compared to the untreated blank the equation was used: viability (%) = 100% × sample OD570 (the mean value of the measured optical density of the treated cells)/blank OD570 (the mean value of the measured optical density of the untreated cells). CC50—represents the concentration of tested compounds that was required for a 50% cell proliferation inhibition in vitro. The effect of the tested compounds on the cell lines was measured using MTT assay according to the international standard: ISO 10993-5:2009(E). CC50 values were determined based on the plotted curves using GraphPad Prism program (version 8.0.1).
Cell culture: the L929 mouse fibroblast (ATTC® CCL-1™) was routinely cultured in IMDM (Iscove’s Modified Dulbecco Medium, Biowest, Nuaille, France), supplemented with 10% HIFBS, 100 U/mL penicillin and 100 μg/mL streptomycin. Cells were trypsinized twice a week and seeded at a density of 1 × 10^6 per T25 cell culture flask and incubated for 24–48 h in a 37 °C and 10% CO2 to achieve a confluent monolayer.
Cell viability assay: Assays were performed according to international standards: ISO 10993-5:2009(E), Biological evaluation of medical devices, Part 5: Tests for in vitro cytotoxicity. Cell viability were evaluated using the tetrazolium salt [3-(4,5-dimethylthiazol-2-yl)-2,5-diphenyltetrazolium bromide] (Sigma) and mouse fibroblasts L929 cells. For this assay we used only the culture medium, RPMI 1640, without phenol red (Biowest) supplemented with 10% HIFBS, 2 mM L-glutamine (Sigma), 100 U/mL penicillin, 100 μg/mL streptomycin. Shortly after, a 1 × 10^4/well of L929 cells were placed into 96-well plates and incubated in 37 °C and 10% CO2. Afterwards, an old culture medium was replaced by 100 μL of compounds and drugs dilutions in culture medium and the cells were treated for 24 h. Moreover, cells were treated with a 4.0–0.03% concentration of DMSO and 1M NaOH as a compound and drugs solvent (data not shown). Then, 50 μL of 1 mg/mL of MTT solution in RPMI 1640 without phenol red was added to each well and incubated 2h (37 °C, 10% CO2). Next, cell culture medium was aspirated cautiously and 150 μL of DMSO was added to each well, the plates were gently mixed. Then 25 μL 0.1M glycine buffer (pH = 10.5) (Sigma) was added. The optical density at 570 nm on the ELISA reader (Multiskan EX, Labsystems, Vienna, VA, USA), was read. The results were expressed as a percentage of viability compared to untreated cells. All experiments were performed in triplicate. For comparison reasons, two compounds known from our previous studies (6 and 9) were included in the bioassay performed for compounds 5, 7, 8, 9–16.

[3] = system: Toxoplasma gondii RH strain tachyzoites (ATCC PRA 310); experiment: Influence on T. gondii proliferation in Hs27 cells, [3H]-uracil incorporation assay; assay type: cell-based; settings: for IC50: Toxoplasma gondii, HS27, 50% inhibition of T. gondii RH proliferation in vitro, Hs27 host cells, [3H]-uracil incorporation; for SR (selectivity ratio): ratio of CC50 (L929) to IC50 (T. gondii)
[4] = Lipophilicity by HPLC (logkw extrapolation, OECD guideline); assay type: physicochemical; settings: Phenomenex Synergi 4 µm Polar-RP column, methanol:water, calibration with seven standards
Description: HPLC experiments were performed using a chromatograph equipped with an Elite LaChrom L-2130 gradient pump, L-2455 DAD detector, L-2300 column oven, and L-2200 autosampler (Hitachi-Merck, Darmstadt, Germany). The tested samples were applied into the Phenomenex Synergi 4 µm Polar-RP chromatographic column (Phenomenex, Torrance, CA, USA) (150 mm length, 4.6 mm i.d.). Mobile phases were degassed using a built-in membrane degasser.
Chromatographic analysis: 5 µL of each sample (0.1% methanolic solutions) was applied into the chromatographic column and chromatograms were developed at a flow rate of 1.0 mL min^−1 in the isocratic mode using various concentrations of methanol in the binary polar mobile phase: methanol:water (40:60, 45:55, 50:50, 55:45, 60:40, 65:35, and 70:30 (v/v)) Chromatograms were detected at 254 nm. All experiments were repeated in triplicate, and the final results were their arithmetic mean. Dead time was measured for uracil (Calbiochem—Merck, Darmstadt, Germany). All the experiments were performed at ambient temperature.
The chromatographic lipophilicity parameter (logkw) for 5–16 was obtained by the extrapolation of the retention parameter logk to pure water, according to the equation: logk = logkw − S × φ(1) where logkw is the value of the retention factor of a substance in pure water, S is the slope of the regression curve, and φ is the concentration (v/v) of methanol in the mobile phase.
Subsequently, logPHPLC parameters for 5–16 were calculated according to OECD guidelines, based on the equation obtained for seven standards with known lipohilicity parameters (logPo/w): logPo/w = 1.0239(± 0.03)·logkw − 0.1541(± 0.08); n = 7; r = 0.9976; se = 0.08; F = 1047.8(2)

Structure (SMILES)	IC50 [1]	SR (selectivity ratio) [1]	viability at 24 h, 5 µg/mL [2]	viability at 24 h, 25 µg/mL [2]	viability at 24 h, 50 µg/mL [2]	viability at 24 h, 125 µg/mL [2]	viability at 24 h, 250 µg/mL [2]	viability at 24 h, 500 µg/mL [2]	viability at 24 h, 1000 µg/mL [2]	CC50 at 24 h [2]	IC50 [3]	SR (selectivity ratio) [3]	chromatographic logP [4]	melting point
Cc1nc[nH]c1C(=O)NNC(=S)Nc1cccc([N+](=O)[O-])c1 [Compound 1]	14.78 µg/mL (≈ 46.1 µM)	18 fold	–	–	–	–	–	–	–	–	–	–	–	–
Cc1nc[nH]c1C(=O)NNC(=S)Nc1ccc([N+](=O)[O-])cc1 [Compound 2]	21.62 µg/mL (≈ 67.5 µM)	16 fold	–	–	–	–	–	–	–	–	–	–	–	–
Cc1nc[nH]c1C(=O)NNC(=S)Nc1cccc(Cl)c1 [Compound 3]	25.70 µg/mL (≈ 83 µM)	10 fold	–	–	–	–	–	–	–	–	–	–	–	–
Cc1ccc(NC(=S)NNC(=O)c2[nH]cnc2C)cc1Cl [Compound 4]	18.62 µg/mL (≈ 57.5 µM)	4 fold	–	–	–	–	–	–	–	–	–	–	–	–
Cc1nc[nH]c1C(=O)NNC(=S)Nc1ccccc1F [Compound 5]	–	–	98.1%	97.3%	74.8%	87%	69.3%	64.1%	45.8%	455 µg/mL (≈ 1550 µM)	≥ 69 µg/mL	6.61	2.8	–
Cc1nc[nH]c1C(=O)NNC(=S)Nc1cccc(F)c1 [Compound 6]	–	–	96.3%	97.3%	75.4%	64.8%	62.4%	52.3%	35.4%	885 µg/mL (≈ 3020 µM)	≥ 69 µg/mL	7.79	2.99	–
Cc1nc[nH]c1C(=O)NNC(=S)Nc1ccc(F)cc1 [Compound 7]	–	–	103%	103%	89.2%	83.1%	69.9%	61.4%	48.7%	977 µg/mL (≈ 3330 µM)	≥ 69 µg/mL	8.86	2.8	–
Cc1nc[nH]c1C(=O)NNC(=S)Nc1ccccc1Cl [Compound 8, 4-(2-Chlorophenyl)-1-(4-methylimidazol-5-oyl)thiosemicarbazide]	–	–	89.9%	86.3%	78.5%	69.4%	64.8%	57.1%	39.5%	630 µg/mL (≈ 2030 µM)	35.6 µg/mL (≈ 115 µM)	17.69	3.17	217 to 219 °C
Cc1nc[nH]c1C(=O)NNC(=S)Nc1cccc(Cl)c1 [Compound 9]	–	–	93.9%	88.5%	75.3%	64.7%	56.7%	30.2%	8.47%	273 µg/mL (≈ 881 µM)	24.1 µg/mL (≈ 78 µM)	11.30	3.51	–
Cc1nc[nH]c1C(=O)NNC(=S)Nc1ccc(Cl)cc1 [Compound 10]	–	–	103%	96.3%	70.3%	63.6%	56.6%	23.6%	13.6%	231 µg/mL (≈ 746 µM)	≥ 69 µg/mL	3.15	3.44	–
Cc1nc[nH]c1C(=O)NNC(=S)Nc1cccc(Br)c1 [Compound 12, 4-(3-Bromophenyl)-1-(4-methylimidazol-5-oyl)thiosemicarbazide]	–	–	95.3%	89%	74.4%	65.7%	56.8%	20.2%	7.52%	238 µg/mL (≈ 671 µM)	15.6 µg/mL (≈ 44.2 µM)	–	3.71	–
Cc1nc[nH]c1C(=O)NNC(=S)Nc1ccc(Br)cc1 [Compound 13, 4-(4-Bromophenyl)-1-(4-methylimidazol-5-oyl)thiosemicarbazide]	–	–	93.5%	82%	64.1%	56.6%	51.1%	42.1%	30.8%	224 µg/mL (≈ 631 µM)	14.6 µg/mL (≈ 41.1 µM)	–	3.64	–
Cc1nc[nH]c1C(=O)NNC(=S)Nc1ccccc1I [Compound 14, 4-(2-Iodophenyl)-1-(4-methylimidazol-5-oyl)thiosemicarbazide]	–	–	95.2%	92.8%	83.7%	65.4%	44.5%	26.1%	25%	199 µg/mL (≈ 496 µM)	20.3 µg/mL (≈ 50.6 µM)	–	3.23	–
Nc1ccc(S(=O)(=O)Nc2ncccn2)cc1 [sulfadiazine, 4-amino-N-(2-pyrimidinyl)benzenesulfonamide, reference compound]	~ 2721.45 µg/mL	–	–	–	–	–	–	–	–	> 2500 µg/mL	> 2500 µg/mL	<0.92	–	–
COc1cc(Cc2cnc(N)nc2N)cc(OC)c1OC [trimethoprim, 2,4-diamino-5-(3,4,5-trimethoxybenzyl)pyrimidine, reference compound]	–	–	–	–	–	–	–	–	–	> 32 µg/mL	12.1 µg/mL (≈ 41.8 µM)	>2.64	–	–
